Laboratory results as given in patent US10508088B2, “Methods using HDAC11 inhibitors” (FORMA Therapeutics, Inc., priority 2016, dated 2019).

Biological target: Full length human recombinant HDAC11 (Homo sapiens (Human), UniProt Q96DB2)
Test: Enzymatic HDAC11 assay, electrophoretic mobility shift
Type: biochemical
Conditions: substrate FAM-RHKK(tri-fluor-Ac)-NH2, read-out: HDAC11 IC50 Range
Description: The enzymatic HDAC11 assay was performed using electrophoretic mobility shift assay. Full length human recombinant HDAC11 protein was expressed in baculoviral system and purified by affinity chromatography. The enzymatic reactions were assembled in 384 well plates in a total volume of 25 μL in a reaction buffer composing: 100 mM HEPES, pH 7.5, 25 mM KCl, 0.1% bovine serum albumin, 0.01% Triton X-100, 1% DMSO (from compounds) 2 μM of the fluorescently labeled peptide substrate and enzyme. The enzyme was added at a final concentration of 10 nM. The peptide substrate FAM-RHKK(tri-fluor-Ac)-NH2 was used. The compounds were tested at 12 concentrations spaced by 3× dilution intervals. Negative control samples (0%-inhibition in the absence of inhibitor) and positive control samples (100%-inhibition) were assembled in replicates of four in each assay plate. The reactions were incubated at 25° C. and quenched by the addition of 45 μL of termination buffer (100 mM HEPES, pH 7.5, 0.01% Triton X-100, 0.05% SDS).
The terminated assay plates were analyzed on LabChip® 3000 microfluidic electrophoresis instrument (Perkin Elmer/Caliper Life Sciences). The fluorescence intensity of the electrophoretically separated de-acetylated product and substrate peptide was measured. Activity in each sample was determined as the product to sum ratio (PSR):P/(S+P), where P is the peak height of the product peptide and S is the peak height of the substrate peptide. Percent inhibition (Pinh) is determined using the following equation: Pinh=(PSR0%−PSRinh)/(PSR0%−PSR100%)*100,
where PSRinh is the product sum ratio in the presence of inhibitor, PSR0% is the average product sum ration in the absence of inhibitor and PSR100% is the average product sum ratio in 100%-inhibition control samples. The IC50 values of inhibitors were determined by fitting the percent inhibition curves with 4 parameter dose-response model using XLfit 4 software.

Chain of Full length human recombinant HDAC11 (Q96DB2 whole entry): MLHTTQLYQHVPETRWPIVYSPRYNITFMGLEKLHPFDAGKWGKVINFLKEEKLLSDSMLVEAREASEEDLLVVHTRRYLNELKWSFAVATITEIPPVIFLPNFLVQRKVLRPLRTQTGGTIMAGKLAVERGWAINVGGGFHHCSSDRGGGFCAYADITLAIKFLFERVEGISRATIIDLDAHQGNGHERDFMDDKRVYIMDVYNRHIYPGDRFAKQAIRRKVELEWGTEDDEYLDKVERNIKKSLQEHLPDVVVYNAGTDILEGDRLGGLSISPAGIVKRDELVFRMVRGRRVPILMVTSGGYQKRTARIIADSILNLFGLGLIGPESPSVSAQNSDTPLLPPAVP

Compound	IC50 [µM]
O=C(NO)c1cccc2c1CC1(CCN(Cc3ccccc3)CC1)C2 [II-64, 1′-benzyl-N-hydroxy-1,3-dihydrospiro[indene-2,4′-piperidine]-4-carboxamide]	> 1
COc1cccc(CN2CCC3(Cc4cccc(C(=O)NO)c4C3)C2=O)c1 (centres unmarked) [II-20, N-hydroxy-1′-(3-methoxybenzyl)-2′-oxo-1,3-dihydrospiro[indene-2,3′-pyrrolidine]-4-carboxamide]	> 1
O=C(NO)c1cccc2c1CC1(CCN(Cc3ccccc3OC(F)(F)F)C1=O)C2 (centres unmarked) [II-32, N-hydroxy-2′-oxo-1′-(2-(trifluoromethoxy)benzyl)-1,3-dihydrospiro[indene-2,3′-pyrrolidine]-4-carboxamide]	0.5 to 1
O=C(NO)c1cccc2c1OC1(CC2)CCN(C(=O)C2(c3cccc(C(F)(F)F)c3)CC2)CC1 [II-78, N-hydroxy-1′-(1-(3-(trifluoromethyl)phenyl)cyclopropane-1-carbonyl)spiro[chromane-2,4′-piperidine]-8-carboxamide]	< 0.5
O=C(NO)c1cccc2c1OC1(CC2)CCN(C(=O)c2ccc(F)cc2)CC1 [II-75, 1′-(4-fluorobenzoyl)-N-hydroxyspiro[chromane-2,4′-piperidine]-8-carboxamide]	> 1
O=C(NO)c1cccc2c1CCC1(CCN(Cc3ccc(Cl)cc3)C1=O)C2 (centres unmarked) [II-87, 1′-(4-chlorobenzyl)-N-hydroxy-2′-oxo-3,4-dihydro-1H-spiro[naphthalene-2,3′-pyrrolidine]-5-carboxamide]	> 1
O=C(NO)c1cccc2c1CC1(CCN(Cc3ccc(-c4ccccc4)cc3)C1=O)C2 (centres unmarked) [II-16, 1′-([1,1′-biphenyl]-4-ylmethyl)-N-hydroxy-2′-oxo-1,3-dihydrospiro[indene-2,3′-pyrrolidine]-4-carboxamide]	< 0.5
O=C(NO)c1cccc2c1CCC1(CCN(c3ccc(F)cc3)CC1)O2 [II-93, 1′-(4-fluorophenyl)-N-hydroxyspiro[chromane-2,4′-piperidine]-5-carboxamide]	> 1
O=C(NO)c1cccc2c1CC1(CC2)CCN(Cc2ccc(Cl)c(C(F)(F)F)c2)C1=O (centres unmarked) [II-67, 1′-(4-chloro-3-(trifluoromethyl)benzyl)-N-hydroxy-2′-oxo-3,4-dihydro-1H-spiro[naphthalene-2,3′-pyrrolidine]-8-carboxamide]	< 0.5
O=C(NO)c1cccc2c1CC1(CCN(Cc3ccc(-n4cccn4)nc3)C1=O)C2 (centres unmarked) [II-47, 1′-((6-(1H-pyrazol-1-yl)pyridin-3-yl)methyl)-N-hydroxy-2′-oxo-1,3-dihydrospiro[indene-2,3′-pyrrolidine]-4-carboxamide]	> 1
O=C(NO)c1cccc2c1CC1(CCN(CC3CCC3)C1=O)C2 (centres unmarked) [II-10, 1′-(cyclobutylmethyl)-N-hydroxy-2′-oxo-1,3-dihydrospiro[indene-2,3′-pyrrolidine]-4-carboxamide]	> 1
O=C(NO)c1cccc2c1CC1(CC2)CCN(c2cccc(C(F)(F)F)c2)C1=O (centres unmarked) [II-72, N-hydroxy-2′-oxo-1′-(3-(trifluoromethyl)phenyl)-3,4-dihydro-1H-spiro[naphthalene-2,3′-pyrrolidine]-8-carboxamide]	> 1
O=C(NO)c1cccc2c1CC1(CCN(Cc3ccc(C(F)(F)F)c(F)c3)C1=O)C2 (centres unmarked) [II-5, 1′-(3-fluoro-4-(trifluoromethyl)benzyl)-N-hydroxy-2′-oxo-1,3-dihydrospiro[indene-2,3′-pyrrolidine]-4-carboxamide]	< 0.5
CC(=O)N1CCC2(Cc3cccc(C(=O)NO)c3C2)C1 (centres unmarked) [II-59, 1′-acetyl-N-hydroxy-1,3-dihydrospiro[indene-2,3′-pyrrolidine]-4-carboxamide]	> 1
O=C(NO)c1cccc2c1CC1(CCN(Cc3ccc(OCc4ccccc4)cc3)C1=O)C2 (centres unmarked) [II-41, 1′-(4-(benzyloxy)benzyl)-N-hydroxy-2′-oxo-1,3-dihydrospiro[indene-2,3′-pyrrolidine]-4-carboxamide]	< 0.5
Cc1ccc(N2CCC3(CCc4cccc(C(=O)NO)c4O3)CC2)cc1F [II-83, 1′-(3-fluoro-4-methylphenyl)-N-hydroxyspiro[chromane-2,4′-piperidine]-8-carboxamide]	> 1
O=C(NO)c1cccc2c1CC1(CCN(Cc3cc(Cl)ccc3Cl)C1=O)C2 (centres unmarked) [II-45, 1′-(2,5-dichlorobenzyl)-N-hydroxy-2′-oxo-1,3-dihydrospiro[indene-2,3′-pyrrolidine]-4-carboxamide]	0.5 to 1
CC(=O)N1CCC2(CC1)Cc1cccc(C(=O)NO)c1C2 [II-60, 1′-acetyl-N-hydroxy-1,3-dihydrospiro[indene-2,4′-piperidine]-4-carboxamide]	> 1
O=C(NO)c1cccc2c1CC1(CCN(Cc3ccccc3Cl)C1=O)C2 (centres unmarked) [II-25, 1′-(2-chlorobenzyl)-N-hydroxy-2′-oxo-1,3-dihydrospiro[indene-2,3′-pyrrolidine]-4-carboxamide]	> 1
O=C(NO)c1cccc2c1CC1(CCN(Cc3ccc(C(F)(F)F)nc3)C1=O)C2 (centres unmarked) [II-48, N-hydroxy-2′-oxo-1′-((6-(trifluoromethyl)pyridin-3-yl)methyl)-1,3-dihydrospiro[indene-2,3′-pyrrolidine]-4-carboxamide]	> 1
O=C(NO)c1cccc2c1CC1(CCN(CCN3CCOCC3)C1=O)C2 (centres unmarked) [II-52, N-hydroxy-1′-(2-morpholinoethyl)-2′-oxo-1,3-dihydrospiro[indene-2,3′-pyrrolidine]-4-carboxamide]	> 1
CC(=O)N1CCC2(CCc3c(cccc3C(=O)NO)O2)CC1 [II-91, 1′-acetyl-N-hydroxyspiro[chromane-2,4′-piperidine]-5-carboxamide]	> 1

The remaining lines, values ahead:

IC50 [µM]	Compound
> 1	O=C(NO)c1cccc2c1OC1(CC2)CCN(Cc2ccc(F)cc2)CC1 [II-80, 1′-(4-fluorobenzyl)-N-hydroxyspiro[chromane-2,4′-piperidine]-8-carboxamide]
> 1	O=C(NO)c1cccc2c1CC1(CCN(Cc3ccccc3)CC1)C2O (centres unmarked) [II-66, 1′-benzyl-N,1-dihydroxy-1,3-dihydrospiro[indene-2,4′-piperidine]-4-carboxamide]
> 1	O=C(NO)c1cccc2c1CC1(CCN(Cc3noc(C4CCOCC4)n3)C1=O)C2 (centres unmarked) [II-49, N-hydroxy-2′-oxo-1′-((5-(tetrahydro-2H-pyran-4-yl)-1,2,4-oxadiazol-3-yl)methyl)-1,3-dihydrospiro[indene-2,3′-pyrrolidine]-4-carboxamide]
0.5 to 1	Cc1cccc(CN2CCC3(Cc4cccc(C(=O)NO)c4C3)C2=O)c1 (centres unmarked) [II-17, N-hydroxy-1′-(3-methylbenzyl)-2′-oxo-1,3-dihydrospiro[indene-2,3′-pyrrolidine]-4-carboxamide]
> 1	Cc1noc(C)c1CN1CCC2(Cc3cccc(C(=O)NO)c3C2)C1=O (centres unmarked) [II-50, 1′-((3,5-dimethylisoxazol-4-yl)methyl)-N-hydroxy-2′-oxo-1,3-dihydrospiro[indene-2,3′-pyrrolidine]-4-carboxamide]
> 1	O=C(NO)c1cccc2c1CC1(CCN(C(=O)c3ccc(Cl)cc3)CC1)C2 [II-61, 1′-(4-chlorobenzoyl)-N-hydroxy-1,3-dihydrospiro[indene-2,4′-piperidine]-4-carboxamide]
< 0.5	O=C(NO)c1cccc2c1CC1(CCN(Cc3ccc(C(F)(F)F)cc3)C1=O)C2 (centres unmarked) [II-6, N-hydroxy-2′-oxo-1′-(4-(trifluoromethyl)benzyl)-1,3-dihydrospiro[indene-2,3′-pyrrolidine]-4-carboxamide]
> 1	O=C(NO)c1cccc2c1CC1(CCN(CCCc3ccccc3)C1=O)C2 (centres unmarked) [II-15, N-hydroxy-2′-oxo-1′-(3-phenylpropyl)-1,3-dihydrospiro[indene-2,3′-pyrrolidine]-4-carboxamide]
> 1	Cc1ccccc1CN1CCC2(Cc3cccc(C(=O)NO)c3C2)C1=O (centres unmarked) [II-23, N-hydroxy-1′-(2-methylbenzyl)-2′-oxo-1,3-dihydrospiro[indene-2,3′-pyrrolidine]-4-carboxamide]
< 0.5	O=C(NO)c1cccc2c1CCC1(CCN(c3ccc(C(F)(F)F)cc3)C1=O)C2 (centres unmarked) [II-88, N-hydroxy-2′-oxo-1′-(4-(trifluoromethyl)phenyl)-3,4-dihydro-1H-spiro[naphthalene-2,3′-pyrrolidine]-5-carboxamide]
> 1	O=C(NO)c1cccc2c1CC1(CCN(CC3CCCCC3)C1=O)C2 (centres unmarked) [II-44, 1′-(cyclohexylmethyl)-N-hydroxy-2′-oxo-1,3-dihydrospiro[indene-2,3′-pyrrolidine]-4-carboxamide]
0.5 to 1	O=C(NO)c1cccc2c1CC1(CCN(Cc3ccccc3C(F)(F)F)C1=O)C2 (centres unmarked) [II-29, N-hydroxy-2′-oxo-1′-(2-(trifluoromethyl)benzyl)-1,3-dihydrospiro[indene-2,3′-pyrrolidine]-4-carboxamide]
0.5 to 1	O=C(NO)c1cccc2c1CC1(CCN(c3cccc(C(F)(F)F)c3)C1=O)C2 (centres unmarked) [II-12, N-hydroxy-2′-oxo-1′-(3-(trifluoromethyl)phenyl)-1,3-dihydrospiro[indene-2,3′-pyrrolidine]-4-carboxamide]
